The results in this text go back to ChEMBL document CHEMBL4004838, “Design and synthesis of novel phenyl -1, 4-beta-carboline-hybrid molecules as potential anticancer agents” (Eur J Med Chem, 2017).

SMILES strings stand for the structures. pIC50: −log10 of the molar value. In brackets after ≈: the same amount, converted by molar mass.

The term pIC50 denotes the negative decadic logarithm of the IC50, by convention in mol/L. For orientation: IC50 means the concentration that gives 50% inhibition.

Assay [1] has as its target Kinesin-like protein KIF11 (Homo sapiens, UniProt P52732). Put plainly: Inhibition of EG5 (unknown origin).
Another assay concerns LNCaP. Put plainly: Cytotoxicity against human LNCAP cells assessed as cell viability after 72 hrs by MTT assay. It counts as functional, cell-based.
The test system of another assay is HepG2. Put plainly: Cytotoxicity against human HepG2 cells assessed as cell viability after 72 hrs by MTT assay. It counts as functional, cell-based. To be noted: HepG2, 72 h.
The subject of the next assay is MCF7. Put plainly: Cytotoxicity against human MCF7 cells assessed as cell viability after 72 hrs by MTT assay. The format is functional, cell-based. To be noted: MCF7, 72 h. (Tetrazolium dyes change colour on reduction, which living cells bring about.)

Sequence of Kinesin-like protein KIF11 (P52732 whole entry): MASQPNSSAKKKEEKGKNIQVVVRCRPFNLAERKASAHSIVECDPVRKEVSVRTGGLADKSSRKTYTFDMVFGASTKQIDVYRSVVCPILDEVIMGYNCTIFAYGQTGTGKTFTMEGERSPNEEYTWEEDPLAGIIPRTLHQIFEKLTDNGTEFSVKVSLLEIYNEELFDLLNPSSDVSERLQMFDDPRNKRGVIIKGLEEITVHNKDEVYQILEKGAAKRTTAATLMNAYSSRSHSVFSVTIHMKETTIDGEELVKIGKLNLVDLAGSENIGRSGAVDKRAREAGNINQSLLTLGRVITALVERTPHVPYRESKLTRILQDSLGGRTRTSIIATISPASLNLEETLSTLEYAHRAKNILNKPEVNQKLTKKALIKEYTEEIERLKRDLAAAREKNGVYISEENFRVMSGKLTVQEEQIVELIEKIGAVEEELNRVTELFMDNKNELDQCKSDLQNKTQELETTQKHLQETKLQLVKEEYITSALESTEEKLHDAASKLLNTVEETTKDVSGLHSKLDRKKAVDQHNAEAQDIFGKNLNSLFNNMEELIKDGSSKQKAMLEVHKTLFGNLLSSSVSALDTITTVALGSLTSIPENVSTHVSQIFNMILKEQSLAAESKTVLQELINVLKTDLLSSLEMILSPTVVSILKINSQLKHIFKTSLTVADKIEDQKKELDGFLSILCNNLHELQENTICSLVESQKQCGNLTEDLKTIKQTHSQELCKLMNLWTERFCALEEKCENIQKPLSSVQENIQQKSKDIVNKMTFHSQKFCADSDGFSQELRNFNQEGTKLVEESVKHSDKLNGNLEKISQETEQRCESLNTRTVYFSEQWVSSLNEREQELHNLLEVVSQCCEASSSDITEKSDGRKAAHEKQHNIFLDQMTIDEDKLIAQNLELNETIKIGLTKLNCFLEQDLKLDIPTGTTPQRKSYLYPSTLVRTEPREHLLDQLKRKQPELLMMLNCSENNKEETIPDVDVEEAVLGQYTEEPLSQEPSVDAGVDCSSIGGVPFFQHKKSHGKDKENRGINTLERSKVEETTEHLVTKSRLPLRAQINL

In turn, `CCCCN1C(=O)[C@H]2Cc3c([nH]c4ccccc34)[C@@H](c3cccc(O)c3)N2C1=O` showed a pIC50 in assay [1] of 6.10.

For the molecule `COc1cccc2c1C(=O)c1c(O)c3c(c(O)c1C2=O)C[C@@](O)(C(=O)CO)C[C@@H]3O[C@H]1C[C@H](N)[C@H](O)[C@H](C)O1` [DOXORUBICIN], the IC50 came out at 5.28 µg/mL (≈ 9.71 µM) with LNCaP and 4.23 µg/mL (≈ 7.78 µM) with HepG2.

On to `c1ccc2c3c([nH]c2c1)[C@@H](c1ccc([C@H]2NCCc4c2[nH]c2ccccc42)cc1)NCC3`, for which the IC50 with MCF7 came out at 8.7 µg/mL (≈ 20.8 µM); in the assay with LNCaP it was 15.2 µg/mL (≈ 36.4 µM); with HepG2, 5.22 µg/mL (≈ 12.5 µM).

Take `c1ccc2c3c([nH]c2c1)[C@H](c1ccc([C@@H]2NCCc4c2[nH]c2ccccc42)cc1)NCC3`: the IC50 in the assay on MCF7 is 5.19 µg/mL (≈ 12.4 µM); in the assay with LNCaP it was 13.3 µg/mL (≈ 31.8 µM); with HepG2, 6.22 µg/mL (≈ 14.9 µM).
